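All cell lines were grown in 96-well plates and treated with compound for 48 hours. GI50 = concentration required for 50% inhibition of growth.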 Activity calls are given as the source filed them. Cut-off read from the data, not from the text of the source: active = GI50 up to about 1.1 µM and inactive = higher.

Test systems include U-251; K562; SNB-19; SF-539; EKVX; HCT-116; RXF 393; OVCAR-8; A549; Malme-3M; LOX IMVI; SF-268; HOP-62; KM12; NCI-H23; UACC-257; Hs-578T; MDA-MB-435.
Holding throughout (assay): NCI tumour cell line growth inhibition, 48 h

On to `O=C(NCCCCCCNC(=O)NC1OCC(O)C(O)C1O)NC1OCC(O)C(O)C1O` (stereo not drawn), for which the GI50 in the assay on U-251 was > 100 µM (inactive); with K562 it was > 100 µM (inactive); in the assay on SNB-19, < 0.01 µM (active); with SF-539, > 100 µM (inactive); in the assay on EKVX, > 100 µM (inactive); in the assay with HCT-116, > 100 µM (inactive). The GI50 with RXF 393, in the assay on OVCAR-8, in the assay on A549, in the assay on Malme-3M, in the assay with LOX IMVI and with SF-268 was > 100 µM (inactive) in each case. Also, the GI50 in the assay on HOP-62, in the assay on KM12 and in the assay with NCI-H23 was > 100 µM (inactive) throughout.

Turning to `CSc1nc(SC)c2c(C#N)n[nH]c2n1`, the GI50 with U-251, with K562, with SNB-19, in the assay on SF-539, in the assay with UACC-257 and with EKVX was > 100 µM (inactive) in each case. Besides, the GI50 in the assay on RXF 393, in the assay with OVCAR-8, in the assay on A549, in the assay on Malme-3M, with LOX IMVI and with SF-268 was > 100 µM (inactive) throughout. The GI50 in the assay with HOP-62, in the assay with KM12 and in the assay on NCI-H23 was > 100 µM (inactive) throughout.

On to `C[N+](C)(C)CC1CCC/C1=N/O` (stereo not drawn), for which the GI50 was 48.4 µM (inactive) in the assay on U-251; 23.7 µM (inactive) with K562; > 100 µM (inactive) with SNB-19; > 100 µM (inactive) in the assay on SF-539; 43 µM (inactive) in the assay with UACC-257; > 100 µM (inactive) with EKVX. For the same compound, the GI50 was 21.5 µM (inactive) with HCT-116; 37.1 µM (inactive) in the assay on RXF 393; 1.86 µM (inactive) in the assay on OVCAR-8; > 100 µM (inactive) in the assay on A549; > 100 µM (inactive) in the assay on Malme-3M; 20.6 µM (inactive) in the assay with LOX IMVI. Moreover, the GI50 in the assay on SF-268, with HOP-62, in the assay with KM12 and with NCI-H23 was > 100 µM (inactive) each time.

For the compound `CCc1cccc(C(C)C)c1NC(=O)C(=O)CC(=O)c1c(C)[n+]([O-])c2ccccc2[n+]1[O-]`, the GI50 with U-251, in the assay with K562, in the assay on SNB-19, in the assay on SF-539, in the assay with EKVX and in the assay on HCT-116 was > 100 µM (inactive) throughout. For the same compound, the GI50 in the assay on RXF 393, with OVCAR-8, with A549, in the assay with Malme-3M, in the assay on LOX IMVI and with SF-268 was > 100 µM (inactive) each time. In addition, the GI50 in the assay with HOP-62 and with NCI-H23 was > 100 µM (inactive) throughout.

`CC(C)c1cc(C(C)C)c(S(=O)(=O)NN)c(C(C)C)c1`: the GI50 with U-251, with K562, with SNB-19, in the assay on SF-539, in the assay on UACC-257 and in the assay on EKVX was > 100 µM (inactive) throughout. Besides, the GI50 in the assay with HCT-116 is > 100 µM (inactive); in the assay on RXF 393 it was > 100 µM (inactive); with OVCAR-8, > 100 µM (inactive); in the assay with A549 it was > 100 µM (inactive); with Malme-3M, > 100 µM (inactive); in the assay with LOX IMVI, 42.1 µM (inactive). Further, the GI50 in the assay on SF-268, in the assay on HOP-62, with KM12 and with NCI-H23 was > 100 µM (inactive) throughout.

Consider `NCCc1ccc2oc3cc(=O)c4ccccc4c-3nc2c1`, for which the GI50 was 2.62 µM (inactive) with U-251; 2.02 µM (inactive) with K562; 2.71 µM (inactive) in the assay with SNB-19; 2.6 µM (inactive) with SF-539; 2.37 µM (inactive) with UACC-257; 11.6 µM (inactive) with EKVX. Moreover, the GI50 was 1.41 µM (inactive) with HCT-116; 2.84 µM (inactive) with RXF 393; 4.91 µM (inactive) in the assay on OVCAR-8; 0.478 µM (active) in the assay with A549; 2.12 µM (inactive) in the assay on Malme-3M; 1.24 µM (inactive) in the assay on LOX IMVI. For the same compound, the GI50 is 3.85 µM (inactive) in the assay on SF-268, 3.09 µM (inactive) with HOP-62, 2.67 µM (inactive) in the assay with KM12 and 0.746 µM (active) in the assay with NCI-H23.

In the case of `CC1(OCc2ccccc2)C(=O)N2C1NCC2(C)C` (stereo not drawn), the GI50 in the assay on U-251, in the assay with K562, in the assay on SNB-19, with SF-539, in the assay with UACC-257 and in the assay on EKVX was > 100 µM (inactive) each time. The GI50 in the assay with HCT-116, in the assay with RXF 393, with OVCAR-8, in the assay on A549, with Malme-3M and in the assay with LOX IMVI was > 100 µM (inactive) each time. The GI50 in the assay with SF-268, in the assay on HOP-62 and in the assay on NCI-H23 was > 100 µM (inactive) each time.

Consider `Cc1cc(C)nc(NS(=O)(=O)c2ccc(NC(=O)c3ccc(Cl)c4c(Nc5ccc(S(=O)(=O)Nc6cc(C)on6)cc5)c5ccccc5nc34)cc2)n1`, for which the GI50 in the assay on U-251 was 15.3 µM (inactive); in the assay on K562, 20.9 µM (inactive); in the assay with SNB-19, 17 µM (inactive); with SF-539, 18.7 µM (inactive); in the assay on UACC-257, 18.2 µM (inactive); with EKVX, 19 µM (inactive). The GI50 is 20.4 µM (inactive) in the assay on HCT-116; 14.3 µM (inactive) with RXF 393; 15.5 µM (inactive) with OVCAR-8; 19.7 µM (inactive) in the assay on A549; 20.9 µM (inactive) with Malme-3M; 15.8 µM (inactive) in the assay with LOX IMVI. Moreover, the GI50 is 15 µM (inactive) in the assay with SF-268, 16.3 µM (inactive) in the assay on HOP-62, 18.4 µM (inactive) with KM12 and 14.5 µM (inactive) with NCI-H23.

Take `C[C@H](c1ccccc1)N1C(=O)[C@@H](OCc2ccccc2)[C@H]1[C@H](COC(=O)COCc1ccccc1)OCc1ccccc1`: the GI50 is > 100 µM (inactive) with U-251; > 100 µM (inactive) in the assay on K562; 37.1 µM (inactive) with SNB-19; 60.7 µM (inactive) with Hs-578T; > 100 µM (inactive) with EKVX; 54.1 µM (inactive) with MDA-MB-435. The GI50 in the assay with HCT-116 is > 100 µM (inactive); in the assay with A549, > 100 µM (inactive); in the assay on Malme-3M, 11.6 µM (inactive); in the assay with LOX IMVI, > 100 µM (inactive); in the assay with SF-268, > 100 µM (inactive); with HOP-62, > 100 µM (inactive). For the same compound, the GI50 with KM12 was > 100 µM (inactive); in the assay on NCI-H23, 57.3 µM (inactive).

For the compound `O=c1[nH]c(=O)n(C2CC(O)C(CO)O2)cc1OS(=O)(=O)C(F)(F)F` (stereo not drawn), the GI50 with U-251, in the assay with K562, in the assay with SNB-19, in the assay with SF-539, in the assay with EKVX and in the assay on HCT-116 was > 100 µM (inactive) throughout. For the same compound, the GI50 with RXF 393, in the assay on OVCAR-8, in the assay on A549, with Malme-3M, in the assay on LOX IMVI and in the assay with SF-268 was > 100 µM (inactive) in each case. For the same compound, the GI50 in the assay on HOP-62, in the assay with KM12 and with NCI-H23 was > 100 µM (inactive) throughout.

On to `N#Cc1ccc(Sc2nc3ccccc3[nH]2)cc1`, for which the GI50 in the assay with U-251, in the assay with K562, with SNB-19, in the assay with SF-539, in the assay with UACC-257 and with EKVX was > 100 µM (inactive) in each case. For the same compound, the GI50 in the assay on RXF 393 is > 100 µM (inactive); in the assay with OVCAR-8, > 100 µM (inactive); with A549 it was 78.2 µM (inactive); in the assay on Malme-3M it was > 100 µM (inactive); in the assay with LOX IMVI, > 100 µM (inactive); in the assay on SF-268, > 100 µM (inactive). Further, the GI50 in the assay with HOP-62, with KM12 and in the assay on NCI-H23 was > 100 µM (inactive) throughout.

As to `CCOP(=O)(OCC)C1CC(O)C(=O)N1` (stereo not drawn), the GI50 with U-251, in the assay on K562, in the assay with SNB-19, with Hs-578T, in the assay on UACC-257 and in the assay on EKVX was > 100 µM (inactive) each time. The GI50 with MDA-MB-435, in the assay on HCT-116, in the assay on OVCAR-8, with A549, in the assay on Malme-3M and in the assay with LOX IMVI was > 100 µM (inactive) each time. For the same compound, the GI50 in the assay on SF-268, in the assay on HOP-62, in the assay on KM12 and with NCI-H23 was > 100 µM (inactive) throughout.

In the case of `CCOC(=O)C1=C(C)Nc2ccccc2S1`, the GI50 is > 100 µM (inactive) in the assay with U-251; > 100 µM (inactive) in the assay with K562; > 100 µM (inactive) in the assay with SNB-19; > 100 µM (inactive) with SF-539; > 100 µM (inactive) in the assay on UACC-257; 14.3 µM (inactive) in the assay on EKVX. Moreover, the GI50 in the assay on HCT-116 is > 100 µM (inactive); in the assay on RXF 393, 51.9 µM (inactive); in the assay on A549, > 100 µM (inactive); in the assay with Malme-3M it was > 100 µM (inactive); in the assay on LOX IMVI, 94.8 µM (inactive); in the assay on SF-268 it was > 100 µM (inactive). The GI50 in the assay with HOP-62, with KM12 and with NCI-H23 was > 100 µM (inactive) in each case.

These data come from ChEMBL document CHEMBL1201862, “PubChem BioAssay data set” (2004).
